Assay results published in US20200367818A1, “DEVICES, SYSTEMS, AND METHODS FOR TUMOR VISUALIZATION AND REMOVAL” (UNIVERSITY HEALTH NETWORK, priority 2018, published 2020).
Where a name gives a salt, the structure may show the parent alone.

System: invasive breast carcinoma lumpectomy/mastectomy specimens and lymph nodes
Assay: 5-ALA breast study: PpIX fluorescence imaging of breast tumor specimens and lymph nodes with handheld device (405 nm excitation)
Format: in vivo, human
Conditions: multispectral or multiband fluorescence imaging with 5-ALA
Procedure: In one example, oral 5-ALA was dissolved in water and administered by a study nurse between 2-4 h before surgery in patients at dosages of 15 or 30 mg/kg 5-ALA.
By viewing lymph nodes prior to removal from the subject's body, it is possible to observe, using the device 100, red fluorescence emissions from cells containing induced porphyrins that are within the lymph node.
When combined with 5-ALA red FL, the differing emission spectra of normal tissue AF and PpIX are easily distinguishable visually (see FIGS. 15 and 16). […] The 405 nm excitation LEDs and the dual band emission filter (500-545 nm and 600-660 nm) are suitable for breast tumor imaging using 5-ALA because they provide a composite image comprised of red PpIX and green connective tissue FL, and broad green-to-red FL of adipose tissue (appears pink).

NCC(=O)CCC(=O)O [5-ALA, Aminolevulinic acid hydrochloride]
depth below the imaged tissue surface at which otherwise clinically occult disease is detected: ≤ 2.6 mm
